Tests used:
Type in all cases: binding
[1] = target: T1, nNOS-PDZ (Homo sapiens, UniProt P29475); test: FP saturation and inhibition assay, Cy5-Nav1.4 probe / nNOS-PDZ; conditions: concentrations reaching 500–1800 μM; Cy5-Nav1.4 50 nM; [nNOS-PDZ] = 20 μM (ZL006) or 10 μM (IC87201)
T1 construct: nNOS-PDZ (12–130, human); made in house; host or cells: E. coli
Description: (§1) Fluorescent probes were made by attaching fluorophores (Cy5) to C-terminal 10- or 11-mer (C10 or C11) peptide ligands representing canonical and natural occurring protein partners (Supplementary Table S1). […] (Fig. 2).
(b) Cy5-GluN2B as probe (50 nM), [PDZ2] = 6 μM. (c) Cy5-CRIPT as probe (50 nM), [PDZ3] = 5 μM. […] Error bars indicate SEM based on three individual measurements.
nNOS-PDZ (12–130, human) and α-Syntrophin-PDZ (82–200, human), both comprising an N-terminal His-tag/FXa-site sequence ([…]), were likewise expressed in E. coli and purified by HisTrap chromatography followed by gel-filtration as described in details previously. To make the TAMRA-labelled nNOS-PDZ, mutant nNOS-PDZ (V36C) protein was generated by standard site-directed mutagenesis and characterized as described previously. Here, dithiothreitol was added to the pooled protein sample after HisTrap purification to a final concentration of 10 mM to eliminate unwanted disulfide bonds, and a final gel-filtration (50 mM NaPi buffer pH 7.5) was performed to remove impurities and salts. Next, purified nNOS-PDZ (V36C) was desalted by dialysis into 50 mM (NH4)2CO3 buffer (SnakeSkin dialysis tubing 3.5 MWCO, Pierce, Rockford, IL, USA) and subsequently lyophilized. nNOS-PDZ (V36C) was redissolved in 500 μL buffer (6 M GnHCl, 200 mM NaPi) and solid TAMRA-maleimide (5-tetramethylrhodamine-C2-maleimide; Anaspec, Fremont, CA, USA) was added in excess (cf. ESI-LC-MS). The coupling reaction was incubated at room temperature for 16 hours and TAMRA-labelled nNOS-PDZ was purified by preparative HPLC, and refolded in assay buffer. Functional validation was performed by FP[19], and all final proteins were characterized for purity and identity by SDS-PAGE and ESI-LC-MS.
Incubation time was 10–15 minutes (room temperature), and the assay was performed in a 1 × TBS buffer (150 mM NaCl, 10 mM Tris, pH 7.4) using black flat-bottom 384-well plates (Corning Life Sciences, NY) and a Safire2 plate-reader (Tecan, Männedorf, Switzerland). G-factor was adjusted so that probe alone (i.e. without protein interacting-partner) would give an FP value of 20 mP. This background value was subsequently subtracted from the raw data before plotting and analyzing the data. TAMRA- and Cy5-probes were measured at excitation/emission values of 530/585 nm (bandwidth = 20 nm) and 635/670 nm (bandwidth = 15 nm), respectively. […]
(§2) FP values were fitted to the general equation: Y = Bottom + (Top–Bottom)/[1 + (10^(X-logIC50)*HillSlope)], where X is the logarithmic value of peptide/compound concentration, and Y is the experimental FP values. Competitive inhibition constants, Ki values, were calculated from the IC50 values to quantify affinities between test substance and protein[42]. […]

[2] = target: T2, PDZ1 of PSD-95 (Homo sapiens, UniProt P78352); test: FP inhibition assay, Cy5-GluN2B probe / PDZ1; conditions: concentrations reaching 500–1800 μM; Cy5-GluN2B 50 nM; [PDZ1] = 10 μM (ZL006) or 18 μM (IC87201)
T2 construct: PDZ1 (61-151); made in house; host or cells: E. coli BL21-DE3 pLysS
Description: as §1
(b) Cy5-GluN2B as probe (50 nM), [PDZ2] = 6 μM. (c) Cy5-CRIPT as probe (50 nM), [PDZ3] = 5 μM. […] Error bars indicate SEM based on three individual measurements. […]
(§3) Incubation time was 10–15 minutes (room temperature), and the assay was performed in a 1 × TBS buffer (150 mM NaCl, 10 mM Tris, pH 7.4) using black flat-bottom 384-well plates (Corning Life Sciences, NY) and a Safire2 plate-reader (Tecan, Männedorf, Switzerland). […] TAMRA- and Cy5-probes were measured at excitation/emission values of 530/585 nm (bandwidth = 20 nm) and 635/670 nm (bandwidth = 15 nm), respectively. […]
as §2

[3] = target: T3, TAMRA-nNOS/PSD-95-PDZ2 interaction (Homo sapiens, UniProt P29475+P78352, V36C); test: 'direct' FP assay, TAMRA-nNOS / PDZ2 (saturation and inhibition)
T3 construct: nNOS-PDZ (12–130, human); PDZ2 (155-249); made in house; host or cells: E. coli
Description: The assay was established by creating a fluorescent version of nNOS-PDZ by TAMRA-labelling nNOS-PDZ via an introduced cysteine residue (V36C). […] However, up to 7.3 μM no inhibition of TAMRA-nNOS/PSD-95-PDZ interactions could be measured (data not shown).
(a) Saturation curves between TAMRA-nNOS (5 nM) and PDZ1, PDZ2, and PDZ1-2 of PSD-95. […] Error bars indicate SEM based on three individual measurements.
nNOS-PDZ (12–130, human) and α-Syntrophin-PDZ (82–200, human), both comprising an N-terminal His-tag/FXa-site sequence ([…]), were likewise expressed in E. coli and purified by HisTrap chromatography followed by gel-filtration as described in details previously. To make the TAMRA-labelled nNOS-PDZ, mutant nNOS-PDZ (V36C) protein was generated by standard site-directed mutagenesis and characterized as described previously. […]
as §3

[4] = target: T4, α1-Syntrophin-PDZ/nNOS-PDZ interaction (Homo sapiens, UniProt P29475); test: 'indirect' FP assay, Cy5-Sapk3 / α-Syntrophin-PDZ / nNOS-PDZ; conditions: up to 500–600 μM; Cy5-Sapk3 5 nM / α-Syntrophin-PDZ 14 μM / nNOS-PDZ 10 μM
T4 construct: nNOS-PDZ (12–130, human); α-Syntrophin-PDZ (82–200, human); made in house; host or cells: E. coli
T4 sequence (P29475 12-130): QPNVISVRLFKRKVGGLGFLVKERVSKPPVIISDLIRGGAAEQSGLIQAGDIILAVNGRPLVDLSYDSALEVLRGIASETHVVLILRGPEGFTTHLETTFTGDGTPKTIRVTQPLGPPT
From the text: First we tested a series of 23 fluorescent-labelled C-terminal peptide ligands (Supplementary Table S1) derived from PDZ-interacting proteins in order to find a probe with good activity towards the PSD-95 PDZ domains and no or little activity against nNOS-PDZ (Supplementary Fig. S1). The Cnskr2 probe fulfilled these selectivity criteria and was used to generate saturation curves with PDZ2 and PDZ1-2 of PSD-95 (Fig. 4a). […] Next, fixed concentrations of TAMRA-Cnskr2, PSD-95-PDZ2/1-2, and nNOS-PDZ were applied, corresponding to the conditions at IC50 of the nNOS-PDZ inhibition curve (Fig. 4b) where sensitivity of the assay is greatest. […] Here, we used the Sapk3-peptide as it has the desired high affinity to α1-Syntrophin-PDZ and low affinity to nNOS-PDZ (Supplementary Fig. S1).
The minor increases in mP at high concentrations, 260-2900 μM, were due to fluorescence artefacts.
Similar, this assay was established with Syntrophin-PDZ and Sapk3 as probe (Fig. 4d).
In all cases, the DMSO effect on the assay was tested and found negligible.

T1 sequence (P29475 12-130): as above

Oc1c(Cl)cc(Cl)cc1CNc1ccc2[nH]nnc2c1 [IC87201, 2-((1H-Benzo[d][1–3]triazol-5-ylamino)methyl)-4-6-dichlorophenol]
inhibition of probe-PDZ interaction (nNOS-PDZ) [1]: did not inhibit
inhibition of probe-PDZ interaction (PDZ1) [2]: did not inhibit
inhibition of TAMRA-nNOS/PDZ2 interaction ([3]; up to 7.3 μM (fluorescence artefacts above), data not shown): no inhibition
activity in indirect FP assay (α1-Syntrophin-PDZ/nNOS-PDZ) [4]: no activity

O=C(O)c1ccc(NCc2cc(Cl)cc(Cl)c2O)cc1O [ZL006, 4-((3,5-Dichloro-2-hydroxybenzyl)amino)-2-hydroxybenzoic acid]
inhibition of probe-PDZ interaction (nNOS-PDZ) [1]: did not inhibit
inhibition of probe-PDZ interaction (PDZ1) [2]: did not inhibit
inhibition of TAMRA-nNOS/PDZ2 interaction ([3]; tested at up to 1200 μM, TAMRA-nNOS 5 nM, PDZ2 2.5 μM): no activity
activity in indirect FP assay (α1-Syntrophin-PDZ/nNOS-PDZ) [4]: no activity
